The target of data set [1] is Histone deacetylase 1 (Homo sapiens, UniProt Q13547). The data set can be described thus: Inhibition of HDAC1 (unknown origin) by fluorescence based assay.
The subject of data set [2] is MV4-11. Put plainly: cells. Format: functional, cell-based. The note with it: Homo sapiens, MV4-11, 72 h.
Description: Antiproliferative activity against human MV4-11 cells assessed as inhibition of cell growth measured after 72 hrs by CellTiterGlo assay
The target of data set [3] is Histone deacetylase 4 (Homo sapiens, UniProt P56524). The data set can be described thus: Inhibition of HDAC4 (unknown origin) by fluorescence based assay.
In data set [4] the test system is MV4-11. The data set can be described thus: Antitumor activity against human MV4-11 cells xenografted in mouse assessed as tumor growth inhibition at 30 mg/kg, ip administered daily for 17 days. To be noted: MV4-11, 408 h, time 17 day, read-out: TGI. In kind it is functional.
The nature of data set [5]: Toxicity in mouse implanted in human MV4-11 cells assessed as body weight loss at 10 to 30 mg/kg, ip administered daily for 17 days. Format: organism-based. To be noted: in vivo, 408 h, dose 10-30 mg/kg, time 17 day.
Data set [6] can be described thus: Toxicity in mouse implanted in human MV4-11 cells assessed as spleen damage at 10 to 30 mg/kg, ip administered daily for 17 days by H and E staining based analysis. In kind it is organism-based. The note with it: in vivo, 408 h, dose 10-30 mg/kg, time 17 day.
The subject of data set [7] is MV4-11. The data set can be described thus: Antiproliferative activity against human MV4-11 cells assessed as growth inhibition at 1 uM measured after 72 hrs by CellTiterGlo assay. In kind it is functional. The note with it: read-out: GI. A general note: ATP-based viability assays read luminescence as a measure of living cells.
Data set [8] relates to MV4-11. The data set can be described thus: Antiproliferative activity against human MV4-11 cells assessed as growth inhibition at 0.5 uM measured after 72 hrs in presence of 0.05 uM of vorinostat by CellTiterGlo assay. To be noted: read-out: GI. In kind it is functional.
Data set [9] deals with MV4-11. Put plainly: Antiproliferative activity against human MV4-11 cells assessed as growth inhibition at 0.5 uM measured after 72 hrs in presence of 0.2 uM of vorinostat by CellTiterGlo assay. In kind it is functional. The note with it: read-out: GI.
The subject of data set [10] is MV4-11. The data set can be described thus: Antiproliferative activity against human MV4-11 cells assessed as growth inhibition at 2 uM measured after 72 hrs in presence of 0.05 uM of vorinostat by CellTiterGlo assay. To be noted: read-out: GI. Format: functional.
Data set [11] concerns MV4-11. The data set can be described thus: Antiproliferative activity against human MV4-11 cells assessed as growth inhibition at 2 uM measured after 72 hrs in presence of 1 uM of vorinostat by CellTiterGlo assay. In kind it is functional. To be noted: read-out: GI.
Data set [12] concerns MV4-11. The data set can be described thus: Induction of apoptosis in human MV4-11 cells assessed as early apoptotic cells at 200 nM incubated for 72 hrs in presence of vorinostat by Annexin V/PI staining based flow cytometry analysis (reference value: 0.76 %). In kind it is functional. A general note: Flow cytometry measures light scatter and fluorescence of single cells or particles in a stream.

Data set [13] has as its system MV4-11. Put plainly: Induction of apoptosis in human MV4-11 cells assessed as viable cells at 600 nM incubated for 72 hrs in presence of vorinostat by Annexin V/PI staining based flow cytometry analysis (reference value: 96.68%). In kind it is functional. The note with it: read-out: Activity.

Usually IC50 stands for the midpoint of a concentration-inhibition curve. Lower therefore signals greater potency.

Sequence of Histone deacetylase 4 (P56524 whole entry): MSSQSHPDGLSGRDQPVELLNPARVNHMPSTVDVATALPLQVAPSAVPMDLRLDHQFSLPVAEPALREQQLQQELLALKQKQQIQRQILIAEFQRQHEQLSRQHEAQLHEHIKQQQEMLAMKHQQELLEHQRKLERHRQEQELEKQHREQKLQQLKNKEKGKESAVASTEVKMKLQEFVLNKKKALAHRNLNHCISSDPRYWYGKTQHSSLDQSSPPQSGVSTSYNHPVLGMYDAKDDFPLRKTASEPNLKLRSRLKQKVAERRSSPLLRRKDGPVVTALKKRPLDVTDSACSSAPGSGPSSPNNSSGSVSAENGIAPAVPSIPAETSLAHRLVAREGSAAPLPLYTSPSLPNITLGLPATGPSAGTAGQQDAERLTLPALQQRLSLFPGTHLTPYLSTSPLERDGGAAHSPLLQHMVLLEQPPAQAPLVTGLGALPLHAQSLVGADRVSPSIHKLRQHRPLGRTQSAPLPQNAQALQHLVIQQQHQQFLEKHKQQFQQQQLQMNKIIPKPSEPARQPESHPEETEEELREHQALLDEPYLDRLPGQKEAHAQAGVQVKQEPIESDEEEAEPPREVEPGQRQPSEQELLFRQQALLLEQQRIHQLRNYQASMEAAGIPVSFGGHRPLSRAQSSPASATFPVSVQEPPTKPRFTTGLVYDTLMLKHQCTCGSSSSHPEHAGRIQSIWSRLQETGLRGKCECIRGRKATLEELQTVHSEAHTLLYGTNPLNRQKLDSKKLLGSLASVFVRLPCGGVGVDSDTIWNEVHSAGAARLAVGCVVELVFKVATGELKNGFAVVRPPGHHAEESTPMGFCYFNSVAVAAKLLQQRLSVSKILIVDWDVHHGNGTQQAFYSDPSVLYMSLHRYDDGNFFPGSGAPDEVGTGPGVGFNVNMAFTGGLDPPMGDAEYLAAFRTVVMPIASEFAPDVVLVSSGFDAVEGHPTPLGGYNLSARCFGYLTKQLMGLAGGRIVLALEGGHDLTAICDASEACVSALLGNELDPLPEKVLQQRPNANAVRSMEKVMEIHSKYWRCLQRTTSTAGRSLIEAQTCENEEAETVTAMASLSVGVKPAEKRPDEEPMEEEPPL
Sequence of Histone deacetylase 1 (Q13547 whole entry): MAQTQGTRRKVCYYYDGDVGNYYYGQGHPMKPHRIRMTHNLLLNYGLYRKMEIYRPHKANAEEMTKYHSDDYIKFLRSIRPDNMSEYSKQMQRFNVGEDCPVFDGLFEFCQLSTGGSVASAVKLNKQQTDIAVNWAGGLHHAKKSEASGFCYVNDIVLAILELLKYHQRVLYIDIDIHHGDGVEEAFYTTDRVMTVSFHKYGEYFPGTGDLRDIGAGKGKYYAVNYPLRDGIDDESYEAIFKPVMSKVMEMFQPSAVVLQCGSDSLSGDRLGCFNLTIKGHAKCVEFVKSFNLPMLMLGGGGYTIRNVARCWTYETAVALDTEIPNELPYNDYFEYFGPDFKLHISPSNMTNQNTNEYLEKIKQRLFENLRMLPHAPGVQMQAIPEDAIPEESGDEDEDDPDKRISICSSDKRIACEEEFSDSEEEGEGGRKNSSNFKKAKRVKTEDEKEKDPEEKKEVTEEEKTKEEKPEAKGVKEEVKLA

Turning to `Cc1c(F)c(N)cc(C(=O)Nc2cc(-c3ccc(C(=O)NCc4ccc(/C=C/C(=O)NO)cc4)cc3)ccc2N2CCN(C)CC2)c1Cl`, the results for the 50% inhibitory concentration (IC50) in data set [1], in data set [2] and in data set [3] were 400 nM, 65 nM and 4690 nM, respectively. Also, in data set [4], the inhibition in vivo at 30 mg/kg was 87.1%. Moreover, the Activity entry in data set [5] and in [6] was “Non-toxic” throughout.
In the case of `Cc1c(F)c(N)cc(C(=O)Nc2cc(-c3ccc(C(=O)N4CCOCC4)cc3)ccc2N2CCN(C)CC2)c1Cl`, in [7], the inhibition of growth at 1 µM worked out at 40.7%. In addition, the inhibition of growth at 0.5 µM was determined as 50.1% in [8] and 58.9% in data set [9]. For the same compound, the inhibition of growth at 2 µM in data set [10] came out at 55.9%; in data set [11] it was 95.6%. The Activity in data set [12] is given as 33.87%. Moreover, in data set [13], the viability at 0.6 µM was 9.67%.

The record behind these values is ChEMBL document CHEMBL6096706, “Discovery of WDR5-MLL1 and HDAC Dual-Target Inhibitors for the Treatment of Acute Myeloid Leukemia” (J Med Chem, 2025).
